In US7259140B2, “Heparin-binding peptides and uses thereof” (Thomas Jefferson University, priority 2003, dated 2007):
Bridge positions count the residues as written; N and C are the ends. Ends that are not written are not given here. Peptide text beside a SMILES is read from it.

Columns and labels:
[1] = Hemodynamic effects in rats without prior Lovenox
Description: Rats were sedated, and catheters were inserted into the femoral vein and femoral artery. The femoral artery catheter was hooked up to the computerized monitoring system, and injections were made through the femoral vein. Peptides were injected into rats without prior injection of Lovenox. Two or more rats (300-350 grams) were treated with 2 mg protamine or peptide.
At the times indicated in the figures, the following actions were taken: administration of saline to insure that the animal and intubations were stable; administration of test peptide or protamine alone; then administration of protamine.

platelets = assay: Platelet aggregation with aggregation-inducing agents; type: cell-based, human; conditions: 12 μg/ml; Lovenox 0.5 U/ml; collagen, ADP, ristocetin, epinephrine, SFFLRN, A23187
Description: Plasma from six volunteers was tested with various aggregation inducing agents, at several concentrations of each agent, and with six different peptides of the invention. The effect of heparin-binding peptides of the invention on platelet aggregation was determined using standard procedures as previously described. The six peptides which were synthesized and tested were: (ARKKAAKA)4 (SEQ ID NO:31), ARKKAAKA(A16)ARKKAAKA (SEQ ID NO:30), (ARKKAAKA)3ARKKCAKA (SEQ ID NO:33), (ARKKAAKA)3VLVLVLVL (SEQ ID NO:5), C(ARKKAAKA)4C (SEQ ID NO:34), and (AKKARA)6 (SEQ ID NO:32).
The aggregation-inducing agents tested were: collagen, adenosine diphosphate (ADP), ristocetin, epinephrine, the thrombin receptor peptide SFFLRN, and calcium ionophore A23187. Platelets were subjected to protamine, or to SEQ ID NOS:31, 33, 30, 5, 34, or 32 at 12 μg/ml, and Lovenox® at 0.5 U/ml. Platelet aggregation in response to agonists was monitored and percent aggregation was determined over a five minute interval.
The agonist was added after equilibration of the platelets for one minute.

[2] = system: anti-Factor Xa activity of Lovenox®; assay: In vivo neutralization of the LMWH Lovenox in rats (anti-Factor Xa assay of plasma)
Description: Experiments were performed to test the ability of heparin-binding peptides of the invention to neutralize low molecular weight heparins which are used clinically, such as Lovenox®. To this end, rats were cannulated in the jugular and femoral veins. Lovenox® was injected through the jugular vein, and three minutes later the peptide was injected via the jugular vein. The peptides tested included (ARKKAAKA)4 (SEQ ID NO:31), C(ARKKAAKA)4C (SEQ ID NO:34), (ARKKAAKA)3ARKKCAKA (SEQ ID NO:33), and (ARKKAAKA)3VLVLVLVL (SEQ ID NO:5). Blood was collected from the femoral vein. 0.1 ml was collected at each time point. Plasma was prepared from each tube, and the anti-Factor Xa assay was performed.
Results. The dose response of each peptide from 2 mg/300 gm to 0.5 mg/300 gm was tested and a representative dose (1.0 mg) is shown in FIG. 4. […] The absorbance is inversely proportional to the heparin concentration. There is no heparin present when A405=0.7, and about 1 U/ml when A405=0.4. The events at the arrows are indicated in the box insert.

## C[C@@H]1NC(=O)[C@H](C)NC(=O)[C@H](CCCCN)NC(=O)[C@H](CCCCN)NC(=O)[C@H](CCCNC(=N)N)NC(=O)[C@H](C)NC(=O)[C@H](C)NC(=O)[C@H](CCCCN)NC(=O)[C@H](C)NC(=O)[C@H](C)NC(=O)[C@H](CCCCN)NC(=O)[C@H](CCCCN)NC(=O)[C@H](CCCNC(=N)N)NC(=O)[C@H](C)NC(=O)[C@@H](N)CSSC[C@@H](C(=O)O)NC(=O)[C@H](C)NC(=O)[C@H](CCCCN)NC(=O)[C@H](C)NC(=O)[C@H](C)NC(=O)[C@H](CCCCN)NC(=O)[C@H](CCCCN)NC(=O)[C@H](CCCNC(=N)N)NC(=O)[C@H](C)NC(=O)[C@H](C)NC(=O)[C@H](CCCCN)NC(=O)[C@H](C)NC(=O)[C@H](C)NC(=O)[C@H](CCCCN)NC(=O)[C@H](CCCCN)NC(=O)[C@H](CCCNC(=N)N)NC(=O)[C@H](C)NC(=O)[C@H](C)NC(=O)[C@H](CCCCN)NC1=O [C(ARKKAAKA)4C, cyclized C(ARKKAAKA)4C] (H-CARKKAAKAARKKAAKAARKKAAKAARKKAAKAC-OH; disulfide 1-34)
[1]; 2 mg per rat, no Lovenox
  effect on blood pressure: did not cause a change in blood pressure
platelets
  effect on platelet aggregation: no significant inhibition or enhancement of aggregation

## ARKKAAKAAAAAAAAAAAAAAAAAARKKAAKA [ARKKAAKA(A16)ARKKAAKA, reference compound]
[1]; 2 mg per rat, no Lovenox
  effect on blood pressure: did not affect blood pressure
platelets
  effect on platelet aggregation: no significant inhibition or enhancement of aggregation

## ARKKAAKAARKKAAKAARKKAAKAARKKAAKA [(ARKKAAKA)4]
[1]; 2 mg per rat, no Lovenox
  time to nadir of blood pressure: 2 min
platelets
  effect on platelet aggregation: no significant inhibition or enhancement of aggregation

## ARKKAAKAARKKAAKAARKKAAKAVLVLVLVL [(ARKKAAKA)3VLVLVLVL]
[1]; 2 mg per rat, no Lovenox
  effect on blood pressure: In most rats no drop in blood pressure was seen
[1]; in one rat
  duration of transient blood pressure drop: 1 to 2 min
platelets
  effect on platelet aggregation: no significant inhibition or enhancement of aggregation
[2]
  rank in in vivo neutralization of Lovenox: most effective at the lowest dose

## Protamine [reference compound]
[1]; 2 mg per rat (300-350 grams), no Lovenox
  reduction/drop of blood pressure: 25-35 mm Hg
[1]; 2 mg per rat, no Lovenox
  onset of blood pressure reduction: within less than a minute
  time to nadir of blood pressure: about 4.5 minutes
  time to recovery/reversal of blood pressure: 10 to 12 min
